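Grown in 96-well plates, cells were treated for 48 hours with each compound at five concentrations. Insufficient inhibition: endpoint recorded as highest concentration tested. The concentration for 50% growth inhibition is given as GI50.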 Activity calls are given as the source filed them. No stated cut-off is given here; in the data, active = GI50 up to about 1.1 µM and inactive = higher.
What was measured:
Test in all cases: DTP human tumour cell line panel, 48 h
RXF 631 = system: RXF 631
SNB-78 = system: SNB-78
DMS-114 = system: DMS-114
DU-145 = system: DU-145
MDA-MB-435 = system: MDA-MB-435
DMS-273 = system: DMS-273
MDA-N = system: MDA-N
T47D = system: T47D
Hs-578T = system: Hs-578T

SMILES	GI50 (RXF 631)	GI50 (SNB-78)	GI50 (DMS-114)	GI50 (DU-145)	GI50 (MDA-MB-435)	GI50 (DMS-273)	GI50 (MDA-N)	GI50 (T47D)	GI50 (Hs-578T)
COc1ccc(-c2cc(O)c3cc(Cl)ccc3n2)cc1	> 100 µM (inactive)	> 100 µM (inactive)	> 100 µM (inactive)						
CCC1CN2CCc3cc(OC)c(OC)cc3C2CC1CC1c2cc(OC)c(OC)cc2CCN1C(=O)C(Cc1c[nH]c2ccccc12)NC(=O)OC(C)(C)C (stereo not given)		15.5 µM (inactive)	1.38 µM (inactive)	2.42 µM (inactive)	1.78 µM (inactive)	6.53 µM (inactive)	1.97 µM (inactive)	1.85 µM (inactive)	2.08 µM (inactive)
NCCCCNCCCNC(=O)c1nc(-c2csc(CCN)n2)sc1Cl		> 100 µM (inactive)	> 100 µM (inactive)			> 100 µM (inactive)			
CN(C)C(=O)N(CCCl)N=O		> 100 µM (inactive)	> 100 µM (inactive)			> 100 µM (inactive)			
CCCCc1nccc2c(C)c3[nH]c4ccccc4c3cc12		5.64 µM (inactive)	1.59 µM (inactive)			0.883 µM (active)			
N#CC(C#N)SCc1ccccc1		33 µM (inactive)	24.4 µM (inactive)	22.9 µM (inactive)	17.6 µM (inactive)	39.2 µM (inactive)	1.63 µM (inactive)	18.5 µM (inactive)	26.5 µM (inactive)
CC1CC(c2ccc(Cl)c(Cl)c2)=Nc2ccccc2S1 (stereo not given)		> 100 µM (inactive)	> 100 µM (inactive)			> 100 µM (inactive)			
C[n+]1c2ccccc2c(NC(CCCNC(=N)N)C(=O)O)c2ccccc21 (stereo not given)		> 100 µM (inactive)	> 100 µM (inactive)			> 100 µM (inactive)			
COc1ccc2[nH]c3c(c2c1)[C@H]1CCC(C(C)(C)C)C[C@H]1[C@H]1C(=O)N(c2ccccc2)C(=O)[C@@H]31 (stereo not given in full)	6.15 µM (inactive)		21.9 µM (inactive)			32.7 µM (inactive)			
O=C1C(Cl)=C(Cl)C(=O)N1C1C2CC3CC(C2)CC1C3 (stereo not given)		> 100 µM (inactive)	> 100 µM (inactive)			> 100 µM (inactive)			
O=C1OC(c2ccccc2)=N/C1=C/NC(Cc1c[nH]c2ccccc12)C(=O)O (stereo not given)		> 100 µM (inactive)	> 100 µM (inactive)			> 100 µM (inactive)			
Cc1ccc(C2C(Cl)C(=O)N2NC(=O)c2ccc(N)cc2)cc1 (stereo not given)		5.46 µM (inactive)	10.2 µM (inactive)			2.46 µM (inactive)			
O=C1c2ccccc2C(=O)c2nc3c(O)cccc3cc21	36.2 µM (inactive)		3.81 µM (inactive)			6.61 µM (inactive)			
CC1=NOC(=O)/C1=C/c1ccc([N+](=O)[O-])cc1	> 100 µM (inactive)	> 100 µM (inactive)	> 100 µM (inactive)			> 100 µM (inactive)			
CC(C)(C)/N=C/N1C=Cc2nc3ccccc3cc2C1	> 100 µM (inactive)	> 100 µM (inactive)	> 100 µM (inactive)			> 100 µM (inactive)			
CN1CCc2cc(O)c3cc2C1Cc1ccc(cc1)Oc1cc(ccc1O)CC1c2c(cc4c(c2O3)OCO4)CCN1C (stereo not given)		> 100 µM (inactive)	18.2 µM (inactive)			24.8 µM (inactive)			

— ChEMBL document CHEMBL1201862, “PubChem BioAssay data set” (2004)
